Data from PMC9115111, “Metalloprotease Gp63-Targeting Novel Glycoside Exhibits Potential Antileishmanial Activity” (Frontiers in Cellular and Infection Microbiology, 2022).
Values joined by “and” are separate entries in the source; they are usually repeats but may differ in a detail not shown here. Equal entries are not always repeated.

How the values were obtained:
[1] = system: AG83 promastigotes; assay: CFDA-SE promastigote proliferation assay (FACS); format: cell-based, Leishmania donovani; details: 5 µM
Method: AG83 parasite growth and multiplication were assessed by fluorescence-activated cell sorting and fluorescence microscopy with 6-carboxyfluorescein diacetate succinimidyl ester (CFDA-SE, Life Technologies, USA) as a probe. Promastigotes were washed thrice with PBS. The cells were labeled with CFDA-SE dye and were then incubated at 37°C for 10 min. These cells were then resuspended in ice-cold M199 medium. Furthermore, they were centrifuged at 1,200 g for 10 min (4°C) and resuspended in fresh medium. Cells were treated with the Gly2 and were analyzed through BD FACS DIVA for 3 consecutive replicates after 0, 24, 48, and 72 h, respectively ([Messaritakis et al., 2010]).

[2] = system: L. donovani intracellular amastigotes in J774.A1 macrophages; assay: Intramacrophage amastigote assay (Giemsa staining, J774.A1); format: cell-based, Leishmania donovani; details: treated at IC50 concentration, 24 h; untreated control ~5
Method: For evaluating the efficacy of compounds against intramacrophage amastigotes, Giemsa staining (Sigma-Aldrich) was performed. J774.A1 murine macrophage cells were plated at a cell density of 5 × 10^5 cell/well in a 6-well flat bottom plate. The cells were infected with late-stage L. donovani, rich in promastigotes at a ratio of 10:1. After 6 h, uninfected promastigotes were washed off with PBS.

[3] = biological target: T1, LdGp63 (Leishmania donovani, UniProt P23223); assay: Cellular thermal shift assay (CETSA) in promastigotes; format: binding; details: 5 µM, 24 h, heated to 80°C; Gp63 destabilized in untreated lysate
T1 construct: endogenous in cells; host or cells: Leishmania donovani promastigotes (AG83 lab strain per abstract)
T1 sequence (P23223 88-565): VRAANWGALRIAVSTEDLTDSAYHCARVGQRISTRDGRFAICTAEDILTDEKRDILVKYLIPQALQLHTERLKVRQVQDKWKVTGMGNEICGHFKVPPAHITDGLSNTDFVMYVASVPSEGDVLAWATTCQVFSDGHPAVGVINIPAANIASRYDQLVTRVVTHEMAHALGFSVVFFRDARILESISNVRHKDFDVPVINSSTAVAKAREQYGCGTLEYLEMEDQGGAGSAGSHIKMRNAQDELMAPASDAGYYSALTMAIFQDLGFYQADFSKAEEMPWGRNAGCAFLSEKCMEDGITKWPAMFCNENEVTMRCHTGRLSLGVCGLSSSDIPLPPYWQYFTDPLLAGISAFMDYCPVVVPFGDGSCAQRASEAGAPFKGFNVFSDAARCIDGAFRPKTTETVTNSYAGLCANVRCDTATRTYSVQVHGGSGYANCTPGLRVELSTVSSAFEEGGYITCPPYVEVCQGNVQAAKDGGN
Method: Control cells were incubated with an equal volume of a vehicle. Following incubation, the parasites were washed with PBS to remove excess drug and harvested in 200 μl of a lysis solution (50 mM HEPES, 150 mM NaCl, 1% Triton X-100 and 1% IGEPAL, 1 mM phenylmethyl sulfonyl fluoride). The lysates were centrifuged at 14,000 g for 20 min at 4°C, and supernatants were transferred to new tubes. Furthermore, the protein concentration was measured using the Pierce BCA protein assay kit. After preparation of lysates, 30 μl (0.8 mg/ml) aliquots of the supernatants were heated individually on a Thermomixer compact (Eppendorf) at different temperatures for 7 min and then cooled at room temperature for 3 min. CETSA samples were separated by SDS-PAGE, and immunoblotting was performed as described previously using a mouse polyclonal anti-LdGp63 catalytic domain antibody (1:500) ([Chakrabarti et al., 2021]).

[4] = system: L. donovani promastigotes; assay: Complement-mediated cytolysis of promastigotes by PI uptake (10% NHS); format: cell-based, Leishmania donovani
Method: Parasites with an optimum 10% non-heat-inactivated normal human serum (NHS) were incubated with Gly2 at 5-µM concentration for 15 min. Promastigote lysis was detected by uptake of PI, by use of a FACS Diva flow cytometer (Beckton-Dickinson, Pharmingen), in accordance with the manufacturer’s protocol. Promastigotes were washed for excessive stain removal and filter block for PI red fluorescence, 510–560 nm was used ([Moreno et al., 2010]).

[5] = system: L. donovani promastigotes; assay: Hoechst/PI live/dead dual staining of promastigotes; format: cell-based, Leishmania donovani; details: 5 µM, 72 h
Method: The toxic effect of the three compounds, Gly2, 6, and 8 on promastigotes at 5 µM >IC50 concentration was measured by Hoechst and propidium iodide (PI) double staining. […], parasites were harvested, washed in 0.01 M PBS (pH = 7.4), and stained with Hoechst 33258 (1 µg/ml) (Life Technologies, USA) and PI (5 µg/ml) (Life Technologies, USA) followed by incubation for a period of 20 min at 37°C. Subsequently, cells were washed for excessive stain removal and visualized using fluorescence microscope with 510–560-nm filter block for PI red fluorescence and excitation/emission spectra at 361/497 for Hoechst ([López-Arencibia et al., 2015]).

[6] = system: MDCK cells; assay: MTT cell viability assay on MDCK cells; format: cell-based
Method: The J774.A1 murine macrophage cells were grown in Roswell Park Memorial Institute (RPMI) 1640 medium in the presence of 10% (v/v) FBS and 100 U/ml penicillin−100 µg/ml streptomycin (Gibco, Invitrogen, Thermo Fisher Scientific, NY, USA) at 37°C (humidified) and 5% CO2. […] Madin–Darby canine kidney (MDCK) cells were obtained from the National Centre for Cell Science, Pune, India. MDCK cells were derived from the kidney tissue of an adult female Cocker Spaniel. These were grown in Dulbecco’s modified Eagle’s minimal essential medium (DMEM) in the presence of 10% (v/v) FBS and 100 U/ml penicillin−100 µg/ml streptomycin (Gibco, Invitrogen, Thermo Fisher Scientific, NY, USA) at 37°C (humidified) and 5% CO2 ([Ayana et al., 2018]; [Shivappagowdar et al., 2021]).
All the compounds were dissolved in dimethyl sulfoxide (DMSO) (Sigma-Aldrich) for 1 mM stock solution and were screened against promastigotes at a concentration of 5 µM. […]
To evaluate the cytotoxic effects of 12 compounds on L. donovani promastigotes, LDH assay was performed. This assay involves the reduction of tetrazolium salts to formazan during LDH-mediated catalysis of lactate to pyruvate, which can be detected at 490 nM. […] The selectivity index (SI) for the compound was calculated as the ratio between cytotoxicity (CC50) and activity (IC50) against promastigotes ( Table 1 ).

Structure (SMILES): CC(C)CCOC1O[C@H](CO)[C@@H](O)[C@H](O)[C@H]1O (stereo partly drawn) [Gly2]
- percentage of CFDA-positive cells ([1]; 24 h): 81.59%
- percentage of CFDA-positive cells ([1]; 48 h): 74.68%
- percentage of CFDA-positive cells ([1]; 72 h): 68.48%
- number of amastigotes per infected macrophage [2]: ~ 1 amastigotes/macrophages
- thermostability of Gp63 in treated lysates (immunoblot) [3]: stable at higher temperature
- promastigote death (PI uptake) ([4]; 10% NHS, Gly2 at 5 µM where treated, control in 10% heat-inactivated FBS 0.06%): ~ 80%
- increment in PI uptake ([4]; Gly2 + 10% NHS vs 10% NHS alone): 24.65%
- dead parasites (PI positive) [5]: ~ 94% and ~ 94.15% and ~ 90%
- cytotoxicity in MDCK cells [6]: minimum level of cytotoxicity
